According to the supplement of paper PMC10307832:

Key:
Test in all cases: relative viability (nuclei count vs DMSO), 5 days (fraction); higher = more cells survive
[1] = tested on: NCI-H647
Procedure, shortened: (§1)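 Medians of duplicate plates are given as relative viability. That measure is the nuclei count in treated wells divided by the count in vehicle wells. Counts were taken on 4× images of lung cancer cell lines in 1536-well plates, 5 days after pin-tool dosing the day after seeding with one drug alone or a fixed anchor-drug dose plus five library-drug doses (not always all listed) in √10 steps.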

[2] = tested on: NCI-H1792
Procedure, shortened: as §1

[3] = tested on: LK-2
Procedure, shortened: as §1

[4] = tested on: NCI-H358
Procedure, shortened: as §1

[5] = tested on: NCI-H2347
Procedure, shortened: as §1

[6] = tested on: COR-L23
Procedure, shortened: as §1

[7] = tested on: NCI-H1975
Procedure, shortened: as §1

[8] = tested on: A-427
Procedure, shortened: as §1

[9] = tested on: NCI-H1437
Procedure, shortened: as §1

[10] = tested on: SW 900
Procedure, shortened: as §1

[11] = tested on: NCI-H2009
Procedure, shortened: as §1

[12] = tested on: SK-MES-1
Procedure, shortened: as §1

[13] = tested on: NCI-H520
Procedure, shortened: as §1

[14] = tested on: NCI-H460
Procedure, shortened: as §1

[15] = tested on: COR-L 105
Procedure, shortened: as §1

[16] = tested on: NCI-H1650
Procedure, shortened: as §1

[17] = tested on: EPLC-272H
Procedure, shortened: as §1

[18] = tested on: HCC-44
Procedure, shortened: as §1

[19] = tested on: HOP-62
Procedure, shortened: as §1

[20] = tested on: EKVX
Procedure, shortened: as §1

[21] = tested on: HCC-366
Procedure, shortened: as §1

[22] = tested on: HCC-78
Procedure, shortened: as §1

Nc1cccc2c1CN(C1CCC(=O)NC1=O)C2=O (stereo not drawn) [Lenalidomide] + CCNC(=O)c1noc(-c2cc(C(C)C)c(O)cc2O)c1-c1ccc(CN2CCOCC2)cc1 [Luminespib] (partner 0.01 µM)
relative viability ([1]; first compound 0.253 µM): 0.133
relative viability ([1]; first compound 0.8 µM): 0.284
relative viability ([1]; first compound 2.53 µM): 0.203
relative viability ([1]; first compound 8 µM): 0.26
relative viability ([2]; first compound 0.253 µM): 0.357
relative viability ([2]; first compound 2.53 µM): 0.449
relative viability ([2]; first compound 8 µM): 0.495
relative viability ([3]; first compound 0.253 µM): 0.195
relative viability ([3]; first compound 0.8 µM): 0.179
relative viability ([3]; first compound 2.53 µM): 0.173
relative viability ([3]; first compound 8 µM): 0.193
relative viability ([4]; first compound 0.253 µM): 0.419
relative viability ([4]; first compound 0.8 µM): 0.377
relative viability ([4]; first compound 2.53 µM): 0.437
relative viability ([4]; first compound 8 µM): 0.576
relative viability ([5]; first compound 0.253 µM): 0.507
relative viability ([5]; first compound 0.8 µM): 0.627
relative viability ([5]; first compound 2.53 µM): 0.454
relative viability ([5]; first compound 8 µM): 0.249
relative viability ([6]; first compound 0.253 µM): 0.683
relative viability ([6]; first compound 0.8 µM): 0.766
relative viability ([6]; first compound 2.53 µM): 0.735
relative viability ([6]; first compound 8 µM): 0.758
relative viability ([7]; first compound 0.253 µM): 0.194
relative viability ([7]; first compound 0.8 µM): 0.235
relative viability ([7]; first compound 2.53 µM): 0.251
relative viability ([7]; first compound 8 µM): 0.196
relative viability ([8]; first compound 0.253 µM): 0.807
relative viability ([8]; first compound 0.8 µM): 1
relative viability ([8]; first compound 2.53 µM): 0.914
relative viability ([8]; first compound 8 µM): 1.01
relative viability ([9]; first compound 0.253 µM): 1.19
relative viability ([9]; first compound 0.8 µM): 1.08
relative viability ([9]; first compound 2.53 µM): 1.11
relative viability ([9]; first compound 8 µM): 1.23
relative viability ([10]; first compound 0.253 µM): 0.195
relative viability ([10]; first compound 2.53 µM): 0.189
relative viability ([10]; first compound 8 µM): 0.183
relative viability ([11]; first compound 0.253 µM): 1.04
relative viability ([11]; first compound 0.8 µM): 0.99
relative viability ([11]; first compound 2.53 µM): 1.09
relative viability ([11]; first compound 8 µM): 1.11
relative viability ([12]; first compound 0.253 µM): 0.777
relative viability ([12]; first compound 0.8 µM): 0.891
relative viability ([12]; first compound 2.53 µM): 0.886
relative viability ([12]; first compound 8 µM): 0.863
relative viability ([13]; first compound 0.253 µM): 0.214
relative viability ([13]; first compound 0.8 µM): 0.222
relative viability ([13]; first compound 2.53 µM): 0.218
relative viability ([13]; first compound 8 µM): 0.267
relative viability ([14]; first compound 0.253 µM): 0.0318
relative viability ([14]; first compound 0.8 µM): 0.0303
relative viability ([14]; first compound 2.53 µM): 0.035
relative viability ([14]; first compound 8 µM): 0.0323
relative viability ([15]; first compound 0.253 µM): 0.891
relative viability ([15]; first compound 0.8 µM): 0.574
relative viability ([15]; first compound 2.53 µM): 0.836
relative viability ([15]; first compound 8 µM): 0.994
relative viability ([16]; first compound 0.8 µM): 0.197
relative viability ([16]; first compound 2.53 µM): 0.196
relative viability ([16]; first compound 8 µM): 0.202
relative viability ([17]; first compound 0.253 µM): 0.341
relative viability ([17]; first compound 0.8 µM): 0.259
relative viability ([17]; first compound 2.53 µM): 0.276
relative viability ([17]; first compound 8 µM): 0.204
relative viability ([18]; first compound 0.253 µM): 0.988
relative viability ([18]; first compound 2.53 µM): 1.4
relative viability ([18]; first compound 8 µM): 1.23
relative viability ([19]; first compound 0.253 µM): 0.961
relative viability ([19]; first compound 0.8 µM): 0.843
relative viability ([19]; first compound 2.53 µM): 0.899
relative viability ([19]; first compound 8 µM): 0.938
relative viability ([20]; first compound 0.253 µM): 0.807
relative viability ([20]; first compound 0.8 µM): 0.84
relative viability ([20]; first compound 2.53 µM): 0.955
relative viability ([20]; first compound 8 µM): 0.801

Nc1cccc2c1CN(C1CCC(=O)NC1=O)C2=O (stereo not drawn) [Lenalidomide] + Cc1nc(Nc2ncc(C(=O)Nc3c(C)cccc3Cl)s2)cc(N2CCN(CCO)CC2)n1 [Dasatinib] (partner 0.075 µM)
relative viability ([1]; first compound 0.253 µM): 0.14
relative viability ([1]; first compound 0.8 µM): 0.176
relative viability ([1]; first compound 2.53 µM): 0.319
relative viability ([1]; first compound 8 µM): 0.129
relative viability ([2]; first compound 0.253 µM): 0.8
relative viability ([2]; first compound 0.8 µM): 0.69
relative viability ([2]; first compound 2.53 µM): 0.893
relative viability ([2]; first compound 8 µM): 0.865
relative viability ([3]; first compound 0.253 µM): 0.401
relative viability ([3]; first compound 0.8 µM): 0.332
relative viability ([3]; first compound 2.53 µM): 0.249
relative viability ([3]; first compound 8 µM): 0.172
relative viability ([4]; first compound 0.253 µM): 0.196
relative viability ([4]; first compound 0.8 µM): 0.235
relative viability ([4]; first compound 2.53 µM): 0.19
relative viability ([4]; first compound 8 µM): 0.165
relative viability ([5]; first compound 0.253 µM): 0.264
relative viability ([5]; first compound 0.8 µM): 0.365
relative viability ([5]; first compound 2.53 µM): 0.286
relative viability ([5]; first compound 8 µM): 0.214
relative viability ([6]; first compound 0.253 µM): 0.541
relative viability ([6]; first compound 0.8 µM): 0.507
relative viability ([6]; first compound 2.53 µM): 0.63
relative viability ([6]; first compound 8 µM): 0.569
relative viability ([7]; first compound 0.253 µM): 0.406
relative viability ([7]; first compound 0.8 µM): 0.287
relative viability ([7]; first compound 2.53 µM): 0.486
relative viability ([7]; first compound 8 µM): 0.366
relative viability ([8]; first compound 0.253 µM): 0.58
relative viability ([8]; first compound 0.8 µM): 0.851
relative viability ([8]; first compound 2.53 µM): 0.752
relative viability ([8]; first compound 8 µM): 0.644
relative viability ([9]; first compound 0.253 µM): 0.536
relative viability ([9]; first compound 0.8 µM): 0.45
relative viability ([9]; first compound 2.53 µM): 0.485
relative viability ([9]; first compound 8 µM): 0.442
relative viability ([10]; first compound 0.253 µM): 0.498
relative viability ([10]; first compound 2.53 µM): 0.606
relative viability ([10]; first compound 8 µM): 0.828
relative viability ([11]; first compound 0.253 µM): 0.326
relative viability ([11]; first compound 0.8 µM): 0.299
relative viability ([11]; first compound 2.53 µM): 0.351
relative viability ([11]; first compound 8 µM): 0.284
relative viability ([12]; first compound 0.253 µM): 0.421
relative viability ([12]; first compound 0.8 µM): 0.422
relative viability ([12]; first compound 2.53 µM): 0.499
relative viability ([12]; first compound 8 µM): 0.413
relative viability ([13]; first compound 0.253 µM): 0.188
relative viability ([13]; first compound 0.8 µM): 0.192
relative viability ([13]; first compound 2.53 µM): 0.235
relative viability ([13]; first compound 8 µM): 0.159
relative viability ([14]; first compound 0.253 µM): 0.597
relative viability ([14]; first compound 0.8 µM): 0.473
relative viability ([14]; first compound 2.53 µM): 0.673
relative viability ([14]; first compound 8 µM): 0.308
relative viability ([15]; first compound 0.253 µM): 0.433
relative viability ([15]; first compound 0.8 µM): 0.331
relative viability ([15]; first compound 2.53 µM): 0.427
relative viability ([15]; first compound 8 µM): 0.371
relative viability ([16]; first compound 0.8 µM): 0.241
relative viability ([16]; first compound 2.53 µM): 0.316
relative viability ([16]; first compound 8 µM): 0.303
relative viability ([21]; first compound 0.253 µM): 0.661
relative viability ([21]; first compound 0.8 µM): 0.622
relative viability ([21]; first compound 2.53 µM): 0.752
relative viability ([21]; first compound 8 µM): 0.334
relative viability ([17]; first compound 0.253 µM): 0.379
relative viability ([17]; first compound 0.8 µM): 0.358
relative viability ([17]; first compound 2.53 µM): 0.321
relative viability ([17]; first compound 8 µM): 0.235
relative viability ([22]; first compound 0.253 µM): 0.52
relative viability ([22]; first compound 0.8 µM): 0.371
relative viability ([22]; first compound 2.53 µM): 0.465
relative viability ([22]; first compound 8 µM): 0.308
relative viability ([19]; first compound 0.253 µM): 0.67
relative viability ([19]; first compound 0.8 µM): 0.615
relative viability ([19]; first compound 2.53 µM): 0.79
relative viability ([19]; first compound 8 µM): 0.583
relative viability ([20]; first compound 0.253 µM): 0.613
relative viability ([20]; first compound 0.8 µM): 0.495
relative viability ([20]; first compound 2.53 µM): 0.575
relative viability ([20]; first compound 8 µM): 0.499
